# Measured values reported in paper PMC10746543, “Design principles for cyclin K molecular glue degraders” (Nature Chemical Biology, 2023).
# Where “and” joins values, the source holds several entries; their conditions need not be identical. Equal values may be shown once. Read-outs that look alike come from different tables or passages of the source.
# What was measured:
# CDK12 = biological target: T1, CDK12 (Homo sapiens, UniProt Q16531+Q9NYV4); test: Label-free quantitative mass spectrometry in MDA-MB-231 cells, CDK12; assay type: cell-based
# T1 construct: endogenous in cells; host or cells: MDA-MB-231
# T1 sequence (Q9NYV4 whole entry): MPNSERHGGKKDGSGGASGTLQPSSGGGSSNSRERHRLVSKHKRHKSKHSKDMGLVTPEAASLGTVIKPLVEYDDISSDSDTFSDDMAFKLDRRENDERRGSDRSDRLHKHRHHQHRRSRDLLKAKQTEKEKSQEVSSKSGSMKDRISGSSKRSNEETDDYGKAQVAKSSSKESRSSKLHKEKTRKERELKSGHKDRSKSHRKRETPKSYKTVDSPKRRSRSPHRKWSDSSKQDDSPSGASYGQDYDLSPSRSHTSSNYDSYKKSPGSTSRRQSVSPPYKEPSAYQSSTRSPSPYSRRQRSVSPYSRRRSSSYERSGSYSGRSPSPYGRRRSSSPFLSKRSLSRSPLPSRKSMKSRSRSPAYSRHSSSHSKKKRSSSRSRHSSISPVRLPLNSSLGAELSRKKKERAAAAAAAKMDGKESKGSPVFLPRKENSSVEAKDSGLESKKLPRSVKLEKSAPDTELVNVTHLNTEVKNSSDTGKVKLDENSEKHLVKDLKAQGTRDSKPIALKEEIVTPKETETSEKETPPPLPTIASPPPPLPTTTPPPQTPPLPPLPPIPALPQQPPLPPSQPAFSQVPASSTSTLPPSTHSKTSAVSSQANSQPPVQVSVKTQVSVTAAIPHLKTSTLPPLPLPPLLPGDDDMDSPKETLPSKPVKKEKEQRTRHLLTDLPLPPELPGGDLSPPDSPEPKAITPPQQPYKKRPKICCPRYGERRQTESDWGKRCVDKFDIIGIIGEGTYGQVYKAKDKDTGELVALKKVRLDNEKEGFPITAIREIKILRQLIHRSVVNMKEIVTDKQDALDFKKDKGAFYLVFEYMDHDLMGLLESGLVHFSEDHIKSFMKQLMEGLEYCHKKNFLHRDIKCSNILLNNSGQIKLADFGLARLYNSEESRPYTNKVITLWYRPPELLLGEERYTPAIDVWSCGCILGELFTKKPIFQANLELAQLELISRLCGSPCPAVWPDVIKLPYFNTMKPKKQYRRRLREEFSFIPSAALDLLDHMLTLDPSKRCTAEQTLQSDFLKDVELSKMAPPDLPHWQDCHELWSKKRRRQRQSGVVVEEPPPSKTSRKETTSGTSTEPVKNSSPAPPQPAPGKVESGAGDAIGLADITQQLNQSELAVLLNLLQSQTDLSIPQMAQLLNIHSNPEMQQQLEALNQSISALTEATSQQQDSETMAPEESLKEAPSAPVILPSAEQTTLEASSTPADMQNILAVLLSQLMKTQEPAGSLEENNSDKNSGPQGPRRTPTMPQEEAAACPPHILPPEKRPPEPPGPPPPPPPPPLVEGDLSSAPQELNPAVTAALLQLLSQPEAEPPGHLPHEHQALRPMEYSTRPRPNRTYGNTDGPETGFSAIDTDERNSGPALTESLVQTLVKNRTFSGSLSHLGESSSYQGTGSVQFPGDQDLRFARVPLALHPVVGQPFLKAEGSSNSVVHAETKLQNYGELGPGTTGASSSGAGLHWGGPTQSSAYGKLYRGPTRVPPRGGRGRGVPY
# T1 sequence (O75909 whole entry partner): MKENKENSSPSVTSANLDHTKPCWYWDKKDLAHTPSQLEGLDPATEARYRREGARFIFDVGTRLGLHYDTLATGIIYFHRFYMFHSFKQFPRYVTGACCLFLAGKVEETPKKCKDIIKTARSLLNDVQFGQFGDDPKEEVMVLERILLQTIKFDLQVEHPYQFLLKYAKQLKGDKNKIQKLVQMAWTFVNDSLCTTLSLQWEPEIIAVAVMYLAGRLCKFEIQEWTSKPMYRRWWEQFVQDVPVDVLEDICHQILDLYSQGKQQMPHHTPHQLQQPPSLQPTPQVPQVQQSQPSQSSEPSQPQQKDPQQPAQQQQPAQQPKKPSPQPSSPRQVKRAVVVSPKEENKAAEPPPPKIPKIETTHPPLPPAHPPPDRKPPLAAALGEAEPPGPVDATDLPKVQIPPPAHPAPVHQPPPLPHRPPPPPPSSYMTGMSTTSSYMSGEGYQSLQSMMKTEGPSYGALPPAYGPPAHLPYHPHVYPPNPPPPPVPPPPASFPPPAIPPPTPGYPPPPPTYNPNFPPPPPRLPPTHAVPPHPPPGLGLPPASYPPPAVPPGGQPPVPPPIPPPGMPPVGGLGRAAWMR
# T1 sequence (Q16531 2-1140 limits assumed): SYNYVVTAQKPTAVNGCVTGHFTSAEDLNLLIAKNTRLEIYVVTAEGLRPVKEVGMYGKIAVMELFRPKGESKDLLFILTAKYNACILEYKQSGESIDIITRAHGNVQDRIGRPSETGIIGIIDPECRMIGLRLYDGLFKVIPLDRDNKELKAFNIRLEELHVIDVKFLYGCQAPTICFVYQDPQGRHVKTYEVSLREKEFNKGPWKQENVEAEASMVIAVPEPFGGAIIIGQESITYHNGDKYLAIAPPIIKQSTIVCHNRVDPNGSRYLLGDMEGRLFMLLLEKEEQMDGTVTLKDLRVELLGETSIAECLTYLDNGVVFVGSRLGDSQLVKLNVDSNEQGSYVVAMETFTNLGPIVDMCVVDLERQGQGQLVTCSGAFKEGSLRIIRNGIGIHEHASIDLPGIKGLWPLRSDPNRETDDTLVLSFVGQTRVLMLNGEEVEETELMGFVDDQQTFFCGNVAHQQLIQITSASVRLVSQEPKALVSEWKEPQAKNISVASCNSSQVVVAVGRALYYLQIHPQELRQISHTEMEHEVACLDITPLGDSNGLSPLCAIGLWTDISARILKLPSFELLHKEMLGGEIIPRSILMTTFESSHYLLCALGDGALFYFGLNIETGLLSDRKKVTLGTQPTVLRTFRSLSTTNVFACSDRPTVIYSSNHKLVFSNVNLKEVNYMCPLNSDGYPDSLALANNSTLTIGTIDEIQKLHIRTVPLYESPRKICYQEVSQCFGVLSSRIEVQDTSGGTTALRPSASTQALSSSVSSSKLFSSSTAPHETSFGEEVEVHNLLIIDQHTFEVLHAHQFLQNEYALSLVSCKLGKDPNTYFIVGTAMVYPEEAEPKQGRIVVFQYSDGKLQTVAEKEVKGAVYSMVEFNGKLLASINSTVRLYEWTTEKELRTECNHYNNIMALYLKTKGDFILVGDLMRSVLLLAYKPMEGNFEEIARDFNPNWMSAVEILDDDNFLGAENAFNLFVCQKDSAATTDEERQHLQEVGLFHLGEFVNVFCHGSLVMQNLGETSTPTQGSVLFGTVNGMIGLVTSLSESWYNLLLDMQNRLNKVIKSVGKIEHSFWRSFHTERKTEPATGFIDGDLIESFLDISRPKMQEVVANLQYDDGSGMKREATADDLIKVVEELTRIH
# Procedure: (§1) MDA-MB-231 cells were treated with DMSO or a cyclin K degrader compound at 1 µM for 5 h. Cells were collected by centrifugation and washed with phosphate-buffered saline before snap freezing in liquid nitrogen. Cells were lysed by addition of lysis buffer (8 M urea, 50 mM NaCl, 50 mM 4-(2-hydroxyethyl)-1-piperazineethanesulfonic acid (EPPS) pH 8.5, and protease and phosphatase inhibitors) and homogenization by bead beating (BioSpec) for three repeats of 30 s at 2,400 rpm. Bradford assay was used to determine the final protein concentration in the clarified cell lysate. Then 50 µg of protein for each sample was reduced, alkylated and precipitated using methanol/chloroform as previously described, and the resulting washed precipitated protein was allowed to air dry. Precipitated protein was resuspended in 4 M urea, 50 mM HEPES pH 7.4, followed by dilution to 1 M urea with the addition of 200 mM EPPS, pH 8. Proteins were first digested with LysC (1:50; enzyme:protein) for 12 h at room temperature. The LysC digestion was diluted to 0.5 M urea with 200 mM EPPS pH 8 followed by digestion with trypsin (1:50; enzyme:protein) for 6 h at 37 °C. Sample digests were acidified with formic acid to a pH of 2–3 before desalting using C18 solid phase extraction plates (SOLA, Thermo Fisher Scientific). Desalted peptides were dried in a vacuum-centrifuged and reconstituted in 0.1% formic acid for liquid chromatography–mass spectrometry analysis.
# (§2) Data were collected using a TimsTOF Pro2 (Bruker Daltonics) coupled to a nanoElute LC pump (Bruker Daltonics) via a CaptiveSpray nano-electrospray source. Peptides were separated on a reversed-phase C18 column (25 cm × 75 µm inner diameter, […], IonOpticks) containing an integrated captive spray emitter. Peptides were separated using a 50 min gradient of 2–30% buffer B (acetonitrile in 0.1% formic acid) with a flow rate of 250 nl min^−1 and column temperature maintained at 50 °C.
# (§3) Data-dependent acquisition (DDA) was performed in Parallel Accumulation-Serial Fragmentation (PASEF) mode to determine effective ion mobility windows for downstream diaPASEF data collection. The ddaPASEF parameters included: 100% duty cycle using accumulation and ramp times of 50 ms each, one Trapped Ion Mobility Spectrometry(TIMS)-MS scan and ten PASEF ramps per acquisition cycle. The TIMS-MS survey scan was acquired between 100 m/z and 1,700 m/z and 1/K0 of 0.7–1.3 V s cm^−2. Precursors with one to five charges were selected, and those that reached an intensity threshold of 20,000 arbitrary units were actively excluded for 0.4 min. The quadrupole isolation width was set to 2 m/z for m/z < 700 and 3 m/z for m/z > 800, with the m/z between 700 m/z and 800 m/z being interpolated linearly. […] To perform diaPASEF, the precursor distribution in the DDA m/z-ion mobility plane was used to design an acquisition scheme for data-independent acquisition (DIA) data collection that included two windows in each 50 ms diaPASEF scan. Data were acquired using 16 of these 25 Da precursor double window scans (creating 32 windows) that covered the diagonal scan line for doubly and triply charged precursors, with singly charged precursors able to be excluded by their position in the m/z-ion mobility plane. These precursor isolation windows were defined between 400 m/z and 1,200 m/z and 1/K0 of 0.7–1.3 V s cm^−2.
# (§4) DirectDIA mode includes first extracting the DIA data into a collection of MS2 spectra which are searched using Spectronaut’s Pulsar search engine. The search results are then used to generate a spectral library which is then employed for the targeted analysis of the DIA data. MS/MS spectra were searched against a Swissprot human database (January 2021). Database search criteria largely followed the default settings for directDIA including: tryptic with two missed cleavages, fixed carbomidomethylation of cysteine, and variable oxidation of methionine and acetylation of protein N-termini and precursor Q-value (FDR) cut-off of 0.01. […]
# CDK12–cyclin K and DDB1 = biological target: T2, CDK12–cyclin K and DDB1 (Homo sapiens, UniProt Q16531+Q9NYV4, K965R); test: TR-FRET ternary complex formation assay (compound titration); assay type: binding
# T2 construct: His6–CDK12 (a.a. 713–1,052); full-length or beta-propeller B domain deletion (ΔBPB: a.a. 396–705 deleted) constructs of His6–DDB1ΔBPB, StrepII–Avi–DDB1, or His6–Spy–DDB1; made in house; host or cells: Trichoplusia ni High Five insect cells (baculovirus)
# T2 sequence (Q9NYV4 713-1052 K965R): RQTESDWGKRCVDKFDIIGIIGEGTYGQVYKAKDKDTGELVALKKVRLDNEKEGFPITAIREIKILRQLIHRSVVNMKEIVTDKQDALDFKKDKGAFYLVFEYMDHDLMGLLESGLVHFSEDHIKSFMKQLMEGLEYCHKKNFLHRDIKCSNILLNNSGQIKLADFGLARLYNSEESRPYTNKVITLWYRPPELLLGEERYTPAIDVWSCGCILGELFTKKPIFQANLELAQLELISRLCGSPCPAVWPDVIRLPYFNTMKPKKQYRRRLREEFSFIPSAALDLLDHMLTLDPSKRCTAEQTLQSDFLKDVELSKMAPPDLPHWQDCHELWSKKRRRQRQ
# T2 sequence (O75909 1-267 partner): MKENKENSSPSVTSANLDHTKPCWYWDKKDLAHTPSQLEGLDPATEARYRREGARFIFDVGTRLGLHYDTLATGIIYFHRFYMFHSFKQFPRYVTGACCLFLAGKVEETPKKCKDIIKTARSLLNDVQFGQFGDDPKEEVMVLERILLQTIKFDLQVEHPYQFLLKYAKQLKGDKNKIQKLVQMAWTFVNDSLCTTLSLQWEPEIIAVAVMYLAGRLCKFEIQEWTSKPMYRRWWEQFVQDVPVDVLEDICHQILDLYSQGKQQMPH
# T2 sequence (Q16531 whole entry): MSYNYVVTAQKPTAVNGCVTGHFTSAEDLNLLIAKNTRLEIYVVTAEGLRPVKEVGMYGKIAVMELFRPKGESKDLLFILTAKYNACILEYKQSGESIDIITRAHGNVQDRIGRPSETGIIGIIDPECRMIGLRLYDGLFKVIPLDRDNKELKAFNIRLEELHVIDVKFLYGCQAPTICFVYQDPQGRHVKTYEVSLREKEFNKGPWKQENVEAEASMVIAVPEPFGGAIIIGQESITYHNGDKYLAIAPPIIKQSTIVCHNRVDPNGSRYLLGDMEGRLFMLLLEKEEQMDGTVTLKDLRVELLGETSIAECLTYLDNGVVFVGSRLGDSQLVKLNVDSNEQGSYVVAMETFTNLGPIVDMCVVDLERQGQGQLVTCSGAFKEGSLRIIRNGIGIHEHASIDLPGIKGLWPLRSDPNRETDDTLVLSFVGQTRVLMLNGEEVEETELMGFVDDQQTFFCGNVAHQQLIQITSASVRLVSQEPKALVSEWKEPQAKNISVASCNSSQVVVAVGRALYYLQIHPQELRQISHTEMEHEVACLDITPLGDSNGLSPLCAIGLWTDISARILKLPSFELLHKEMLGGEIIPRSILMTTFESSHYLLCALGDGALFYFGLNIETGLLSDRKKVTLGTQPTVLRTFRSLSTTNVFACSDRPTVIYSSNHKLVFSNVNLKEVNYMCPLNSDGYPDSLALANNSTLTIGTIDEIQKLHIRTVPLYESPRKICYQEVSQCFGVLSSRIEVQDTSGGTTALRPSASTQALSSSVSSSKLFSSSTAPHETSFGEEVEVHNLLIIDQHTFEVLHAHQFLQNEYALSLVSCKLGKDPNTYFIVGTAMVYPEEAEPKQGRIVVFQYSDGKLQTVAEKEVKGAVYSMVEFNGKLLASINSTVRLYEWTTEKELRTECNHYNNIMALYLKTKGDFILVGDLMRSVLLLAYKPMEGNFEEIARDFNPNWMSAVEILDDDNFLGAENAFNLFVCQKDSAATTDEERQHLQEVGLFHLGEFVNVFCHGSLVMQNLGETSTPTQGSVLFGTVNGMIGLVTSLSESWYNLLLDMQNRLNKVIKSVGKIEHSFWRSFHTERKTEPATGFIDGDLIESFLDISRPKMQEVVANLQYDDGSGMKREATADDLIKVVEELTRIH
# Summary of the method: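 Signal was the ratio of 520 nm to 490 nm fluorescence, measured after a 70 μs delay that reduced background.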
# CDK2–cyclin A = biological target: T3, CDK2–cyclin A (Homo sapiens, UniProt P24941); test: Lanthascreen kinase binding assay, CDK2; conditions: for Lanthascreen signal, sheet CDK2: raw replicates, experiment r36-r46
# T3 construct: purchased Thermo Fisher
# Procedure: Lanthascreen experiments were performed using commercially available reagents (Thermo Fisher) and according to the manufacturer’s instructions.
# cyclin K = test: Label-free quantitative mass spectrometry in MDA-MB-231 cells, cyclin K; assay type: cell-based, human
# Procedure: as §1, §2, §3, §4
# [1] = label-free quantitative MS, replicate values
# [2] = normalised to DMSO = 1, replicate values
smiles,measurement,setting,value
CC[C@H](CO)Nc1nc(NCc2nc3cc(Cl)c(Cl)cc3[nH]2)c2ncn(C(C)C)c2n1 [DS17],CDK12 peptide count,CDK12; [1],546.795 and 667.348
same,CDK12 peptide count (DMSO-normalised),CDK12; [2],0.6075 and 0.6893
same,TR-FRET signal at compound concentration 0.468 nM,"CDK12–cyclin K and DDB1; compound concentration 0.468 nM, raw replicate titration data",0.2691 and 0.2681 and 0.2563 and 0.2452
same,TR-FRET signal at compound concentration 2.16 nM,"CDK12–cyclin K and DDB1; compound concentration 2.16 nM, raw replicate titration data",0.3644 and 0.3794 and 0.3582 and 0.3855
same,TR-FRET signal at compound concentration 3.6 nM,"CDK12–cyclin K and DDB1; compound concentration 3.6 nM, raw replicate titration data",0.5749 and 0.6382 and 0.6238 and 0.6481
same,TR-FRET signal at compound concentration 7.92001 nM,"CDK12–cyclin K and DDB1; compound concentration 7.92001 nM, raw replicate titration data",1.103 and 1.253 and 1.275 and 1.336
same,TR-FRET signal at compound concentration 15.84 nM,"CDK12–cyclin K and DDB1; compound concentration 15.84 nM, raw replicate titration data",2.342 and 2.592 and 2.673 and 2.949
same,TR-FRET signal at compound concentration 30.96 nM,"CDK12–cyclin K and DDB1; compound concentration 30.96 nM, raw replicate titration data",3.985 and 4.064 and 4.264 and 4.269
same,TR-FRET signal at compound concentration 62.6401 nM,"CDK12–cyclin K and DDB1; compound concentration 62.6401 nM, raw replicate titration data",4.135 and 4.141 and 4.254 and 4.343
same,TR-FRET signal at compound concentration 125.28 nM,"CDK12–cyclin K and DDB1; compound concentration 125.28 nM, raw replicate titration data",4.238 and 4.311 and 4.291 and 4.347
same,TR-FRET signal at compound concentration 244.8 nM,"CDK12–cyclin K and DDB1; compound concentration 244.8 nM, raw replicate titration data",4.1978 and 4.255 and 4.25 and 4.345
same,TR-FRET signal at compound concentration 993.601 nM,"CDK12–cyclin K and DDB1; compound concentration 993.601 nM, raw replicate titration data",4.229 and 4.264 and 4.321 and 4.299
same,TR-FRET signal at compound concentration 2001.6 nM,"CDK12–cyclin K and DDB1; compound concentration 2001.6 nM, raw replicate titration data",4.223 and 4.116 and 4.3288 and 4.427
same,EC50,"CDK12–cyclin K and DDB1; in vitro complex formation, 50 nM CDK12–cyclin K, 100 nM DDB1, text and figures, read-out: TR-FRET EC50",13 ± 0.3 nM
same,EC50,"CDK12–cyclin K and DDB1; sheet MOESM7, read-out: log TR-FRET EC50 (converted)",13.2 nM
same,EC50,"CDK12–cyclin K and DDB1; source data sheet correlations, read-out: TR-FRET EC50",13.2 nM
same,"Lanthascreen signal, sheet CDK2",CDK2–cyclin A; Compound 0.038147 nM,0.01335 and 0.01346
same,"Lanthascreen signal, sheet CDK2",CDK2–cyclin A; Compound 0.152588 nM,0.01372 and 0.01373
same,"Lanthascreen signal, sheet CDK2",CDK2–cyclin A; Compound 0.610352 nM,0.01335 and 0.01333
same,"Lanthascreen signal, sheet CDK2",CDK2–cyclin A; Compound 9.76563 nM,0.01387 and 0.01379
same,"Lanthascreen signal, sheet CDK2",CDK2–cyclin A; Compound 39.0625 nM,0.01306 and 0.01354
same,"Lanthascreen signal, sheet CDK2",CDK2–cyclin A; Compound 156.25 nM,0.01303 and 0.01259
same,"Lanthascreen signal, sheet CDK2",CDK2–cyclin A; Compound 625 nM,0.01178 and 0.01167
same,"Lanthascreen signal, sheet CDK2",CDK2–cyclin A; Compound 2500 nM,0.01002 and 0.01073
same,"Lanthascreen signal, sheet CDK2",CDK2–cyclin A; Compound 10000 nM,0.0065 and 0.006945
same,IC50,"CDK2–cyclin A; Supplementary Table 2, read-out: Lanthascreen IC50 [nM] CDK2",10300 nM
same,"cyclin K depletion, result in words","cyclin K; MDA-MB-231 cells, 1 µM, 5 h",more effective at depleting cyclin K than CR8
same,cyclin K abundance (label-free MS),"cyclin K; individual replicates, sheet EDF7",47.1483 and 71.6427
same,cyclin K abundance (label-free MS),cyclin K; [1],47.1483 and 71.6427
same,CCNK peptide count (DMSO-normalised),cyclin K; [2],0.02576 and 0.03985
same,average CCNK peptide count,cyclin K; sheet EDF7,59.3955
